1 compound from patent US20190064149A1, “CANCER EXAMINATION METHOD AND EXAMINATION KIT” (THE UNIVERSITY OF TOKYO, priority 2013, published 2019) can be followed below.

In the experiment the target is T1, MT1-MMP (Homo sapiens, UniProt P50281).
T1 construct: expressed in transfected cells; host or cells: HT1080 (human fibrosarcoma) stably expressing c-myc-EphA2, transiently transfected with pSG-MT1-MMP
Kind of experiment: EphA2 processing by MT1-MMP in HT1080 cells forcibly expressing MT1-MMP and Myc-labeled EphA2, western blotting. The experiment is classed as cell-based. The protocol: HT1080 cells expressing c-myc-EphA2 stably were prepared by a ViraPower™ lentiviral expression system using a plenti-c-myc-EphA2 vector in HT1080 and expression vectors (pSG-MT1-6-MMPs) of MT1-6-MMPs were transiently introduced into the resulting cells. EphA2 and MT1-MMP were detected by western blotting using an anti-Myc polyclonal antibody and an anti-MT1-MMP monoclonal antibody. Respective expression vectors of the MT-MMPs were introduced using FuGene6 (Rhoche). Expression of c-myc-EphA2 and wild type MT1-MMP was confirmed by solubilizing each of the cells (10 cm) by RIPA and then performing immunoprecipitation (IP) of EphA2 and stud thereof by an anti C-myc antibody. In order to inhibit the protease activity of MT1-MMP, BB94 or TIMP-2 was added as an MMP inhibitor to a culture solution.
(In western blotting, separated proteins are transferred to a membrane and probed.)

Regarding `CNC(=O)[C@H](Cc1ccccc1)NC(=O)[C@H](CC(C)C)[C@H](CSc1cccs1)C(=O)NO` [BB94], the “EphA2 species purified by immunoprecipitation with Myc antibody” value (HT1080 cells co-expressing Myc-EphA2 and wild type MT1-MMP) is on record as “only a full length type EphA2”. Besides, the “production of 65 and 60 kDa EphA2 processed fragments” value (HT1080 cells forcibly expressing MT1-MMP, inhibitor added to culture solution) is on record as “suppressed”.
